Assay results published in paper PMC9940851, “Seleno Containing Compounds as Potent and Selective Antifungal Agents” (ACS Infectious Diseases, 2022).
Converted amounts (≈) assume the structure as drawn.

Columns and labels:
C. albicans = test: microbe, parasite or virus in culture; parameters: broth microdilution MIC, M. pachydermatis and Candida, 35 °C; conditions: Candida albicans
Procedure: (§1) Inoculum preparations for antifungal assays were performed following the CLSI guidelines for antifungal susceptibility testing of yeasts.[31] Antifungal activity was evaluated on unicellular yeasts Candida albicans ATCC 10231, Candida glabrata ATCC 90030 (DSMZ 11226), Malassezia pachydermatis CDC 16334 (DSMZ 6172), Malassezia globosa ATCC MYA 4612, and Malassezia furfur ATCC 14521. All the fungal strains were stored at −80 °C in cryovials. Then Candida spp. and Malassezia pachydermatis were reactivated in RPMI 1640 broth for 24–48 h at 35 °C. The so obtained fresh cultures were streaked onto Sabouraud dextrose agar and incubated for 24–48 h at 35 °C. Malassezia globosa and furfur were reactivated in modified RPMI 1640 broth[32] for 24–48 h at 35 °C (M. furfur) and 33 °C (M. globosa), and then the cultures were streaked onto Leeming and Notman agar (MLNA) and incubated for 48–72 h at 35 °C for M. furfur and at 33 °C for M. globosa. The fungal inoculum for the testing was prepared by suspending in phosphate buffer (PB) 10 mM pH 7 4–5 colonies of about 1 mm diameter. The fungal suspension was then adjusted to a final optical density of 0.5 McFarland standard (1–5 × 10^6 cells/mL). The compound solutions were tested in a range of concentrations from 0.01 μg/mL to 256 μg/mL, and 50 μL were then added in 96 wells microtiter plates with 50 μL of fungal inoculum and incubated for 24–48 h at 35 °C. Growth and sterility controls were performed. […] Compounds 3a, 3c, 5b, 7a–d, 9c, 11e, 11i, and 14a,b were selected as representatives of the chemical moieties synthesized prior to their screen on yeasts of biomedical relevance such as M. pachydermatis DSMZ 6172, C. albicans ATCC 10231, and C. glabrata ATCC 90030 (DSMZ 11226) strains. The clinical used drugs Ketoconazole, SeS2, and Amphotericin B were included as references (Table 1).

C. glabrata DSMZ 11226 = test system: T1, C. glabrata DSMZ 11226; test: microbe, parasite or virus in culture; parameters: broth microdilution MIC, M. pachydermatis and Candida, 35 °C; conditions: Nakaseomyces glabratus, DSMZ11226
T1 construct: DSMZ 11226 (ATCC 90030)
Procedure: as §1

[1] = test system: T2, M. pachydermatis DSMZ 6172; test: microbe, parasite or virus in culture; parameters: broth microdilution MIC, M. pachydermatis and Candida, 35 °C; conditions: Malassezia pachydermatis, DSMZ6172
T2 construct: DSMZ 6172 (CDC 16334)
Procedure: as §1

ATCC M. furfur 14521 = test system: T3, ATCC M. furfur 14521; test: microbe, parasite or virus in culture; conditions: Malassezia furfur
T3 construct: ATCC 14521
Procedure: as §1

M. globosa ATCC MYA 4612 = test system: T4, M. globosa ATCC MYA 4612; test: microbe, parasite or virus in culture; conditions: Malassezia globosa
T4 construct: ATCC MYA 4612
Procedure: as §1

MpaCA = molecular target: T5, MpaCA (Malassezia pachydermatis, UniProt A0A0M8MPA4); test: stopped-flow CO2 hydrase assay; type: biochemical
T5 construct: gene Malapachy_3798
T5 sequence (A0A0M8MPA4 1-242): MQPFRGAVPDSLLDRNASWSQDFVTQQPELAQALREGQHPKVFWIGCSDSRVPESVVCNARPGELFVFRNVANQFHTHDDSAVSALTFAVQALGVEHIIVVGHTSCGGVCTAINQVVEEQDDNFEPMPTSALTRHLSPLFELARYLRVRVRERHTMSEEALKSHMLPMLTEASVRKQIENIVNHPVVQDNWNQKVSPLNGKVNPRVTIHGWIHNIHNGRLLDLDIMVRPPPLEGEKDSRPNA

MgCA = molecular target: T6, MgCA (Malassezia globosa, UniProt A8Q1N3); test: stopped-flow CO2 hydrase assay; type: biochemical
T6 construct: gene MGL_1814
T6 sequence (A8Q1N3 1-241): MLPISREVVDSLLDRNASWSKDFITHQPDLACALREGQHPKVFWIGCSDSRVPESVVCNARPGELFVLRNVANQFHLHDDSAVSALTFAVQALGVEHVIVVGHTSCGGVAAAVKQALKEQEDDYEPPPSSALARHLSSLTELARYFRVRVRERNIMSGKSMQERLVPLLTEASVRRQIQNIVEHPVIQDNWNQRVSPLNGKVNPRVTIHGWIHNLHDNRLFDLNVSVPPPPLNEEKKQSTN
Summary of the method: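 Stopped-flow recording over 10–100 s followed CO2 hydration (1.7–17 mM CO2) in 20 mM Hepes pH 7.4 plus 20 mM Na2SO4, using 0.2 mM phenol red at 557 nm, after recombinant carbonic anhydrase (5–12 nM) had been preincubated with inhibitor for 15 min at room temperature. Initial rates, corrected for uncatalysed rates, came from at least six traces, and at least three determinations were averaged. Ki was calculated by nonlinear least-squares fitting with the Cheng-Prusoff equation.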

| Structure (SMILES) | MIC (C. albicans) [µg/mL] | MIC (C. glabrata DSMZ 11226) [µg/mL] | MIC [1] [µg/mL] | MIC (ATCC M. furfur 14521) [µg/mL] | MIC (M. globosa ATCC MYA 4612) [µg/mL] | Ki (MpaCA) [µM] | Ki (MgCA) [µM] |
| --- | --- | --- | --- | --- | --- | --- | --- |
| CC(=O)N1CCN(c2ccc(OC[C@@H]3CO[C@@](Cn4ccnc4)(c4ccc(Cl)cc4Cl)O3)cc2)CC1 (racemic) [Ketoconazole] | 0.05 ± 0.02 (≈ 0.0941 µM) | 96 ± 37 (≈ 181 µM) | 0.03 (≈ 0.0565 µM) | 0.25 (≈ 0.47 µM) | 0.25 (≈ 0.47 µM) |  |  |
| NS(=O)(=O)c1ccc(NC(=[Se])Nc2ccccc2)cc1 [3a] | 64 (≈ 181 µM) | 10.7 (≈ 30.2 µM) | 0.5 (≈ 1.41 µM) | 0.5 (≈ 1.41 µM) | 4.3 ± 1.97 (≈ 12.1 µM) | 0.514 | 0.599 |
| NS(=O)(=O)c1ccc(NC(=[Se])Nc2ccccc2F)cc1 [3c] | 341 (≈ 917 µM) | 64 (≈ 172 µM) | 64 (≈ 172 µM) | 16 (≈ 43 µM) | > 256 | 0.152 | 0.721 |
| NS(=O)(=O)c1ccc(CCNC(=[Se])Nc2ccccc2F)cc1 [5b] | 107 (≈ 267 µM) | 3.3 (≈ 8.24 µM) | 0.25 (≈ 0.624 µM) | 1 (≈ 2.5 µM) | 9 ± 5.9 (≈ 22.5 µM) | 0.149 | 0.633 |
| NS(=O)(=O)c1ccc(NC(=[Se])NC(=O)c2ccccc2)cc1 [7a] | 128 (≈ 335 µM) | 32 (≈ 83.7 µM) | 0.5 (≈ 1.31 µM) | 0.85 ± 0.36 (≈ 2.22 µM) | 14.7 ± 3.26 (≈ 38.5 µM) | 44.8 | 3.85 |
| NS(=O)(=O)c1ccc(NC(=[Se])NC(=O)c2ccc3c(c2)OCO3)cc1 [7b] | 128 (≈ 300 µM) | 16 (≈ 37.5 µM) | 0.5 (≈ 1.17 µM) | 0.5 (≈ 1.17 µM) | 16 ± 8.76 (≈ 37.5 µM) | 20.4 | 4.86 |
| NS(=O)(=O)c1ccc(NC(=[Se])NC(=O)c2cc(Br)cc(OC(F)(F)F)c2)cc1 [7c] | 64 (≈ 117 µM) | 8 (≈ 14.7 µM) | 0.5 (≈ 0.917 µM) | 4 (≈ 7.34 µM) | 128 (≈ 235 µM) | 83.5 | 4.3 |
| CC(=O)Oc1ccccc1C(=O)NC(=[Se])Nc1ccc(S(N)(=O)=O)cc1 [7d] | 128 (≈ 291 µM) | 64 (≈ 145 µM) | 3.33 ± 1.15 (≈ 7.56 µM) | 2.7 ± 1.15 (≈ 6.13 µM) | 256 (≈ 581 µM) | 66.8 | 5.88 |
| NS(=O)(=O)c1ccc(CCNC(=[Se])NC(=O)c2ccc3c(c2)OCO3)cc1 [9c] | > 256 | > 256 | 1 (≈ 2.2 µM) | 2 ± 1.37 (≈ 4.4 µM) | 37.3 ± 13.1 (≈ 82.1 µM) | 55.9 | 1.78 |
| O=C(NC(=[Se])Nc1ccc(S(=O)(=O)Nc2nccs2)cc1)c1ccccc1 [10a, N-((4-(N-(Thiazol-2-yl)sulfamoyl)phenyl)carbamoselenoyl)benzamide] |  |  | 1 (≈ 2.15 µM) | 8 (≈ 17.2 µM) | 128 (≈ 275 µM) | 42.9 | 52.8 |
| O=C(NC(=[Se])Nc1ccc(S(=O)(=O)Nc2nccs2)cc1)c1cc(Br)cc(OC(F)(F)F)c1 [10b, 3-Bromo-N-((4-(N-(thiazol-2-yl)sulfamoyl)phenyl)carbamoselenoyl)-5-(trifluoromethoxy)benzamide] |  |  | 16 (≈ 25.5 µM) | 427 ± 148 (≈ 679 µM) | 341 ± 148 (≈ 543 µM) | 85.3 | 9.26 |
| CCCCCCCc1ccc(C(=O)NC(=[Se])Nc2ccc(S(=O)(=O)Nc3nccs3)cc2)cc1 [10c, 4-Heptyl-N-((4-(N-(thiazol-2-yl)sulfamoyl)phenyl)carbamoselenoyl)benzamide] |  |  | 0.8 ± 0.29 (≈ 1.42 µM) | 4 (≈ 7.1 µM) | > 256 | 91.9 | 60.6 |
| O=C(NC(=[Se])Nc1ccc(S(=O)(=O)Nc2nccs2)cc1)c1ccc([N+](=O)[O-])cc1 [10d, 4-Nitro-N-((4-(N-(thiazol-2-yl)sulfamoyl)phenyl)carbamoselenoyl)benzamide] |  |  | 1.8 ± 1.89 (≈ 3.53 µM) | 85.3 ± 37 (≈ 167 µM) | 26.7 ± 9.2 (≈ 52.3 µM) | 92.8 | 8.77 |
| O=C(NC(=[Se])Nc1ccc(S(=O)(=O)Nc2nccs2)cc1)c1ccc(F)cc1 [10e, 4-Fluoro-N-((4-(N-(thiazol-2-yl)sulfamoyl)phenyl)carbamoselenoyl)benzamide] |  |  | 1 (≈ 2.07 µM) | 2.3 ± 2.31 (≈ 4.76 µM) | 128 (≈ 265 µM) | 80.3 | 8.9 |
| O=C(NC(=[Se])Nc1ccc(S(=O)(=O)Nc2nccs2)cc1)c1ccc(I)cc1 [10f, 4-Iodo-N-((4-(N-(thiazol-2-yl)sulfamoyl)phenyl)carbamoselenoyl)benzamide] |  |  | 2 (≈ 3.38 µM) | 5.3 ± 2.31 (≈ 8.96 µM) | > 256 | 74.3 | 10.2 |
| O=C(NC(=[Se])Nc1ccc(S(=O)(=O)Nc2nccs2)cc1)c1ccc(Cl)cc1 [10g, 4-Chloro-N-((4-(N-(thiazol-2-yl)sulfamoyl)phenyl)carbamoselenoyl)benzamide] |  |  | 1.3 ± 0.58 (≈ 2.6 µM) | 64 (≈ 128 µM) | > 256 | 66.7 | 36.1 |
| NS(=O)(=O)c1ccc(O)c(NC(=[Se])NC(=O)c2ccccc2)c1 [11a] |  |  | 1 (≈ 2.51 µM) | 2.7 ± 1.15 (≈ 6.78 µM) | 128 (≈ 321 µM) | 13.4 | 4.1 |
| CCCCCCCc1ccc(C(=O)NC(=[Se])Nc2cc(S(N)(=O)=O)ccc2O)cc1 [11b] |  |  | 8 (≈ 16.1 µM) | 5.3 ± 2.31 (≈ 10.7 µM) | 256 (≈ 516 µM) | 78 | 4.93 |
| NS(=O)(=O)c1ccc(O)c(NC(=[Se])NC(=O)c2ccc([N+](=O)[O-])cc2)c1 [11c, N-((2-Hydroxy-5-sulfamoylphenyl)carbamoselenoyl)-4-nitrobenzamide] |  |  | 0.5 (≈ 1.13 µM) | 5.3 ± 2.31 (≈ 12 µM) | 128 (≈ 289 µM) | 91.2 | 5.02 |
| NS(=O)(=O)c1ccc(O)c(NC(=[Se])NC(=O)c2ccc(I)cc2)c1 [11d, N-((2-Hydroxy-5-sulfamoylphenyl)carbamoselenoyl)-4-iodobenzamide] |  |  | 13.3 ± 4.6 (≈ 25.4 µM) | 10.7 ± 4.62 (≈ 20.4 µM) | 128 (≈ 244 µM) | 7.5 | 2.93 |
| NS(=O)(=O)c1ccc(O)c(NC(=[Se])NC(=O)c2ccc(Cl)cc2)c1 [11f, 4-Chloro-N-((2-hydroxy-5-sulfamoylphenyl)carbamoselenoyl)benzamide] |  |  | 0.5 (≈ 1.16 µM) | 4 (≈ 9.24 µM) | 256 (≈ 592 µM) | 54.2 | 5.13 |
| NS(=O)(=O)c1ccc(O)c(NC(=[Se])NC(=O)c2ccc(Br)cc2F)c1 [11g, 4-Bromo-2-fluoro-N-((2-hydroxy-5-sulfamoylphenyl)carbamoselenoyl)benzamide] |  |  | 3.33 ± 1.15 (≈ 6.72 µM) | 5.3 ± 2.31 (≈ 10.7 µM) | 256 (≈ 517 µM) | 70.9 | 6.01 |
| NS(=O)(=O)c1ccc(O)c(NC(=[Se])NC(=O)c2ccc(CCl)cc2)c1 [11h, 4-(Chloromethyl)-N-((2-hydroxy-5-sulfamoylphenyl)carbamoselenoyl)benzamide] |  |  | 4 (≈ 8.95 µM) | 74.7 ± 48.9 (≈ 167 µM) | > 256 | 76.6 | 6.49 |
| C[C@@H]1[C@H](O)[C@@H](C)/C=C/C=C/C=C/C=C/C=C/C=C/C=C/[C@H](O[C@@H]2O[C@H](C)[C@@H](O)[C@H](N)[C@@H]2O)C[C@@H]2O[C@](O)(C[C@@H](O)C[C@@H](O)[C@H](O)CC[C@@H](O)C[C@@H](O)CC(=O)O[C@H]1C)C[C@H](O)[C@H]2C(=O)O [Amphotericin B] | 0.24 ± 1 (≈ 0.26 µM) | 0.98 (≈ 1.06 µM) | 0.43 ± 0.12 (≈ 0.465 µM) | 1.95 (≈ 2.11 µM) | 125 (≈ 135 µM) |  |  |
